Measurements: patent US8802597B2, “Herbicidal pyrimidines” (E I du Pont de Nemours and Company, priority 2003, dated 2014)

How the values were obtained:
Format in all cases: in vivo
[1] = tested on: Surinam grass (Brachiaria decumbens); assay: Test B pre/postemergence; conditions: for Surinam Grass plant response rating: Postemergence; for Plant response rating, Surinam Grass: Preemergence
Summary of the method: (§1)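 Visual rating, 0 (no effect) to 100 (complete control) versus controls, taken 13–15 days after treatment in greenhouse. Compounds formulated in non-phytotoxic solvent plus surfactant; pre: sprayed after seeding; post: plants at 1- to 4-leaf stage, 2–18 cm.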

[2] = tested on: barnyardgrass (Echinochloa crus-galli); assay: Test B pre/postemergence; conditions: for Barnyardgrass plant response rating: Postemergence; for Plant response rating, Barnyardgrass: Preemergence
Summary of the method: as §1

[3] = tested on: cocklebur (Xanthium strumarium); assay: Test B pre/postemergence; conditions: for Cocklebur plant response rating: Postemergence; for Plant response rating, Cocklebur: Preemergence
Summary of the method: as §1

corn (Zea mays) = assay: Test B pre/postemergence; conditions: for Corn plant response rating: Postemergence; for Plant response rating, Corn: Preemergence
Summary of the method: as §1

[4] = tested on: crabgrass (Digitaria sanguinalis); assay: Test B pre/postemergence; conditions: for Crabgrass plant response rating: Postemergence; for Plant response rating, Crabgrass: Preemergence
Summary of the method: as §1

[5] = tested on: giant foxtail (Setaria faberii); assay: Test B pre/postemergence; conditions: for Foxtail, Giant plant response rating: Postemergence; for Plant response rating, Foxtail, Giant: Preemergence
Summary of the method: as §1

[6] = tested on: lambsquarters (Chenopodium album); assay: Test B pre/postemergence; conditions: scale 0 to 100 (0 no effect, 100 complete control); for Lambsquarters plant response rating: Postemergence; for Plant response rating, Lambsquarters: Preemergence
Summary of the method: as §1

[7] = tested on: morningglory (Ipomoea coccinea); assay: Test B pre/postemergence; conditions: for Morningglory plant response rating: Postemergence; for Plant response rating, Morningglory: Preemergence
Summary of the method: as §1

[8] = tested on: pigweed (Amaranthus retroflexus); assay: Test B pre/postemergence; conditions: for Pigweed plant response rating: Postemergence; for Plant response rating, Pigweed: Preemergence
Summary of the method: as §1

[9] = tested on: velvetleaf (Abutilon theophrasti); assay: Test B pre/postemergence; conditions: for Velvetleaf plant response rating: Postemergence; for Plant response rating, Velvetleaf: Preemergence
Summary of the method: as §1

[10] = tested on: wheat (Triticum aestivum); assay: Test B pre/postemergence; conditions: for Wheat plant response rating: Postemergence; for Plant response rating, Wheat: Preemergence
Summary of the method: as §1

[11] = tested on: blackgrass (Alopecurus myosuroides); assay: Test B postemergence; conditions: scale 0 to 100 (0 no effect, 100 complete control)
Summary of the method: as §1

wild oat (Avena fatua) = assay: Test B postemergence; conditions: scale 0 to 100 (0 no effect, 100 complete control)
Summary of the method: as §1

[12] = tested on: barnyardgrass (Echinochloa crus-galli); assay: Test B flooded paddy test; conditions: Flood, scale 0 to 100
Summary of the method: (§2)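 Plants were grown to the 2-leaf stage before treatment, then kept in a greenhouse for 13 to 15 days. Injury was rated visually against untreated controls on a 0 to 100 scale, where 0 is no effect and 100 is complete control.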

[13] = tested on: duck salad (Heteranthera limosa); assay: Test B flooded paddy test; conditions: Flood, scale 0 to 100
Summary of the method: as §2

rice (Oryza sativa) = assay: Test B flooded paddy test; conditions: Flood, scale 0 to 100
Summary of the method: as §2

[14] = tested on: umbrella sedge (Cyperus difformis); assay: Test B flooded paddy test; conditions: Flood, scale 0 to 100
Summary of the method: as §2

[15] = 62 g ai/ha, scale 0 to 100 (0 no effect, 100 complete control)
[16] = 125 g ai/ha, scale 0 to 100 (0 no effect, 100 complete control)
[17] = 62 g ai/ha, scale 0 to 100, 0 no effect, 100 complete control

With COC(=O)c1nc(-c2ccc(Br)cc2)nc(N)c1Br [Compound 129] the “Surinam Grass plant response rating” value [1, 15] was 50, the “Surinam Grass plant response rating” value [1, 16] was 70 and the “Plant response rating, Surinam Grass” value [1, 17] was 0. For the same compound, the “Plant response rating, Surinam Grass” value [1, 16] was 10, the “Barnyardgrass plant response rating” value [2, 15] was 60 and the “Barnyardgrass plant response rating” value [2, 16] was 70. For the same compound, the “Plant response rating, Barnyardgrass” value [2, 17] was 10, the “Plant response rating, Barnyardgrass” value [2, 16] was 30 and the “Cocklebur plant response rating” value [3, 15] was 70. For the same compound, the “Cocklebur plant response rating” value [3, 16] was 100, the “Plant response rating, Cocklebur” value [3, 17] was 10 and the “Plant response rating, Cocklebur” value [3, 16] was 30. For the same compound, the “Corn plant response rating” value (corn (Zea mays); [15]) was 70, the “Corn plant response rating” value (corn (Zea mays); [16]) was 80 and the “Plant response rating, Corn” value (corn (Zea mays); [16]) was 0. For the same compound, the “Crabgrass plant response rating” value [4, 15] was 50, the “Crabgrass plant response rating” value [4, 16] was 70 and the “Plant response rating, Crabgrass” value [4, 17] was 10. For the same compound, the “Plant response rating, Crabgrass” value [4, 16] was 30, the “Foxtail, Giant plant response rating” value [5, 15] was 40 and the “Foxtail, Giant plant response rating” value [5, 16] was 50. The “Plant response rating, Foxtail, Giant” value [5, 17] was 0, the “Plant response rating, Foxtail, Giant” value [5, 16] was 0 and the “Lambsquarters plant response rating” value ([6]; 62 g ai/ha) was 100. The “Lambsquarters plant response rating” value ([6]; 125 g ai/ha) was 100, the “Plant response rating, Lambsquarters” value ([6]; 125 g ai/ha) was 80 and the “Morningglory plant response rating” value [7, 15] was 50. For the same compound, the “Morningglory plant response rating” value [7, 16] was 100, the “Plant response rating, Morningglory” value [7, 17] was 0 and the “Plant response rating, Morningglory” value [7, 16] was 0. The “Pigweed plant response rating” value [8, 15] was 100, the “Pigweed plant response rating” value [8, 16] was 100 and the “Plant response rating, Pigweed” value [8, 17] was 80. The “Plant response rating, Pigweed” value [8, 16] was 90, the “Velvetleaf plant response rating” value [9, 15] was 80 and the “Velvetleaf plant response rating” value [9, 16] was 90. For the same compound, the “Plant response rating, Velvetleaf” value [9, 17] was 50, the “Plant response rating, Velvetleaf” value [9, 16] was 60 and the “Wheat plant response rating” value [10, 15] was 0. The “Wheat plant response rating” value [10, 16] was 20, the “Plant response rating, Wheat” value [10, 17] was 0 and the “Plant response rating, Wheat” value [10, 16] was 20. The “Blackgrass plant response rating” value ([11]; 62 g ai/ha) was 70, the “Blackgrass plant response rating” value ([11]; 125 g ai/ha) was 70 and the “Oat, Wild plant response rating” value (wild oat (Avena fatua); 62 g ai/ha) was 0. The “Oat, Wild plant response rating” value (wild oat (Avena fatua); 125 g ai/ha) was 40, the “Plant response rating, Barnyardgrass” value ([12]; 125 g ai/ha) was 0 and the “Plant response rating, Barnyardgrass” value ([12]; 500 g ai/ha) was 20. The “Plant response rating, Ducksalad” value ([13]; 125 g ai/ha) was 100, the “Plant response rating, Ducksalad” value ([13]; 500 g ai/ha) was 100 and the “Plant response rating, Rice” value (rice (Oryza sativa); 125 g ai/ha) was 0. For the same compound, the “Plant response rating, Rice” value (rice (Oryza sativa); 500 g ai/ha) was 0, the “Plant response rating, Sedge, Umbrella” value ([14]; 125 g ai/ha) was 90 and the “Plant response rating, Sedge, Umbrella” value ([14]; 500 g ai/ha) was 100.
CCOC(=O)c1nc(-c2ccc(I)cc2)nc(N)c1Cl [Compound 133] was tested, and the “Surinam Grass plant response rating” value [1, 15] was 60, the “Surinam Grass plant response rating” value [1, 16] was 70 and the “Plant response rating, Surinam Grass” value [1, 17] was 0. For the same compound, the “Plant response rating, Surinam Grass” value [1, 16] was 10, the “Barnyardgrass plant response rating” value [2, 15] was 70 and the “Barnyardgrass plant response rating” value [2, 16] was 70. For the same compound, the “Plant response rating, Barnyardgrass” value [2, 17] was 30, the “Plant response rating, Barnyardgrass” value [2, 16] was 30 and the “Cocklebur plant response rating” value [3, 15] was 100. The “Cocklebur plant response rating” value [3, 16] was 100, the “Plant response rating, Cocklebur” value [3, 17] was 20 and the “Plant response rating, Cocklebur” value [3, 16] was 50. For the same compound, the “Corn plant response rating” value (corn (Zea mays); [15]) was 70, the “Corn plant response rating” value (corn (Zea mays); [16]) was 80 and the “Plant response rating, Corn” value (corn (Zea mays); [17]) was 0. The “Plant response rating, Corn” value (corn (Zea mays); [16]) was 0, the “Crabgrass plant response rating” value [4, 15] was 60 and the “Crabgrass plant response rating” value [4, 16] was 70. For the same compound, the “Plant response rating, Crabgrass” value [4, 17] was 40, the “Plant response rating, Crabgrass” value [4, 16] was 70 and the “Foxtail, Giant plant response rating” value [5, 15] was 60. The “Foxtail, Giant plant response rating” value [5, 16] was 70, the “Plant response rating, Foxtail, Giant” value [5, 17] was 0 and the “Plant response rating, Foxtail, Giant” value [5, 16] was 20. The “Lambsquarters plant response rating” value ([6]; 62 g ai/ha) was 100, the “Lambsquarters plant response rating” value ([6]; 125 g ai/ha) was 100 and the “Plant response rating, Lambsquarters” value ([6]; 125 g ai/ha) was 70. For the same compound, the “Morningglory plant response rating” value [7, 15] was 70, the “Morningglory plant response rating” value [7, 16] was 100 and the “Plant response rating, Morningglory” value [7, 17] was 0. For the same compound, the “Plant response rating, Morningglory” value [7, 16] was 0, the “Pigweed plant response rating” value [8, 15] was 90 and the “Pigweed plant response rating” value [8, 16] was 100. The “Plant response rating, Pigweed” value [8, 17] was 70, the “Plant response rating, Pigweed” value [8, 16] was 80 and the “Velvetleaf plant response rating” value [9, 15] was 90. The “Velvetleaf plant response rating” value [9, 16] was 100, the “Plant response rating, Velvetleaf” value [9, 17] was 50 and the “Plant response rating, Velvetleaf” value [9, 16] was 60. The “Wheat plant response rating” value [10, 15] was 0, the “Wheat plant response rating” value [10, 16] was 50 and the “Plant response rating, Wheat” value [10, 17] was 50. The “Plant response rating, Wheat” value [10, 16] was 60, the “Blackgrass plant response rating” value ([11]; 62 g ai/ha) was 60 and the “Blackgrass plant response rating” value ([11]; 125 g ai/ha) was 70. The “Oat, Wild plant response rating” value (wild oat (Avena fatua); 62 g ai/ha) was 40, the “Oat, Wild plant response rating” value (wild oat (Avena fatua); 125 g ai/ha) was 60 and the “Plant response rating, Barnyardgrass” value ([12]; 125 g ai/ha) was 0. For the same compound, the “Plant response rating, Barnyardgrass” value ([12]; 500 g ai/ha) was 0, the “Plant response rating, Ducksalad” value ([13]; 125 g ai/ha) was 90 and the “Plant response rating, Ducksalad” value ([13]; 500 g ai/ha) was 90. The “Plant response rating, Rice” value (rice (Oryza sativa); 125 g ai/ha) was 0, the “Plant response rating, Rice” value (rice (Oryza sativa); 500 g ai/ha) was 0 and the “Plant response rating, Sedge, Umbrella” value ([14]; 125 g ai/ha) was 90. For the same compound, the “Plant response rating, Sedge, Umbrella” value ([14]; 500 g ai/ha) was 90.
